TGI and GI50 data for 13 compounds are collected here from PubChem BioAssay (NCI).

Some test systems named below: SK-MEL-5 melanoma; 786-0 renal; SF-268 CNS; OVCAR-5 ovarian; HOP-62 NSCLC; U251 CNS; SF-539 CNS; SNB-19 CNS; K-562 leukemia; HOP-92 NSCLC.
Holding throughout (assay): inhibition of tumour cell growth, NCI panel, 48 h

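Briefly, cells in 96-well plates were exposed to five compound concentrations for 48 h, and endpoints were estimated by linear interpolation. GI50 = concentration required for 50% inhibition of growth. Definition used: TGI = concentration required for complete inhibition of growth.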

Turning to `COc1cc(OC)c(C(=O)c2cccs2)cc1N`, the TGI in the experiment with SK-MEL-5 melanoma, in the experiment on 786-0 renal, with SF-268 CNS, in the experiment with OVCAR-5 ovarian, with HOP-62 NSCLC and in the experiment on U251 CNS was > 100 µM in each case. The TGI in the experiment on SF-539 CNS, in the experiment with SNB-19 CNS and in the experiment on K-562 leukemia was > 100 µM throughout.

Turning to `N#CC(C(=O)C(=O)Nc1ccccc1)c1ccccc1` (configuration not stated), the TGI in the experiment with HOP-92 NSCLC, in the experiment on 786-0 renal, in the experiment with SF-268 CNS, in the experiment on U251 CNS, in the experiment with SF-539 CNS and in the experiment on SNB-19 CNS was > 100 µM each time. For the same compound, in the experiment on K-562 leukemia, the TGI is > 100 µM.

Turning to `COc1cc(Oc2c(C)c(Cl)c(OC)c(Cl)c2OC)c2c(c1Cl)COC2=O`, the TGI in the experiment on HOP-92 NSCLC was > 100 µM; in the experiment with SK-MEL-5 melanoma, 49.2 µM; in the experiment with 786-0 renal, 68.4 µM; in the experiment with SF-268 CNS, > 100 µM; in the experiment on OVCAR-5 ovarian it was > 100 µM; in the experiment with U251 CNS, > 100 µM. In addition, the TGI was > 100 µM in the experiment with SF-539 CNS, > 100 µM in the experiment on SNB-19 CNS and 8.51 µM in the experiment with K-562 leukemia.

As for `Cc1nc2c(c(N3CCCc4ccccc43)n1)CCC2`, the GI50 in the experiment with HOP-92 NSCLC was 2.42 µM; in the experiment on SK-MEL-5 melanoma, < 0.01 µM; with 786-0 renal it was < 0.01 µM; in the experiment on SF-268 CNS it was 0.0102 µM; in the experiment on OVCAR-5 ovarian it was 1.7 µM; in the experiment with HOP-62 NSCLC, < 0.01 µM. Moreover, the GI50 with U251 CNS, in the experiment on SNB-19 CNS and with K-562 leukemia was < 0.01 µM in each case. For the same compound, the TGI was > 100 µM in the experiment on HOP-92 NSCLC; 0.0233 µM with SK-MEL-5 melanoma; > 100 µM in the experiment on 786-0 renal; > 100 µM in the experiment on SF-268 CNS; > 100 µM in the experiment with OVCAR-5 ovarian; > 100 µM in the experiment on HOP-62 NSCLC. The TGI in the experiment with U251 CNS, in the experiment on SNB-19 CNS and with K-562 leukemia was > 100 µM in each case.

For `COc1ccc(/C=C2\CN(C(=O)C(Cl)Cl)C/C(=C\c3ccc(OC)cc3)C2=O)cc1`, the GI50 with 786-0 renal is 1.88 µM; in the experiment with SF-268 CNS, 2.95 µM; with K-562 leukemia it was 0.343 µM. Moreover, the values for the TGI in the experiment with 786-0 renal, with SF-268 CNS and with K-562 leukemia were 3.86 µM, > 100 µM and > 100 µM, respectively.

For `CCC[CH2][Sn]([CH2]CCC)([O]c1cccc2cccnc12)[O]c1cccc2cccnc12`, the GI50 with SK-MEL-5 melanoma was 0.192 µM; with 786-0 renal, 0.237 µM; in the experiment with SF-268 CNS, 0.203 µM; in the experiment with HOP-62 NSCLC, 6.31 µM; in the experiment with U251 CNS, 0.198 µM; with SF-539 CNS, 0.219 µM. Also, the GI50 in the experiment on SNB-19 CNS was 0.312 µM; in the experiment with K-562 leukemia, 0.0973 µM. Also, the TGI came to 0.409 µM in the experiment on SK-MEL-5 melanoma; 0.607 µM in the experiment on 786-0 renal; 0.575 µM with SF-268 CNS; 19.2 µM with HOP-62 NSCLC; 0.368 µM in the experiment with U251 CNS; 0.514 µM in the experiment on SF-539 CNS. The TGI came out at 0.873 µM with SNB-19 CNS and 0.523 µM with K-562 leukemia.

Turning to `O=c1c2ccc(S(=O)(=O)c3ccc4c(=O)n5c6ccccc6nc5c5cccc3c45)c3cccc(c32)c2nc3ccccc3n12`, the TGI with SK-MEL-5 melanoma was > 100 µM; in the experiment on 786-0 renal, > 100 µM; with SF-268 CNS, > 100 µM; with OVCAR-5 ovarian, > 100 µM; with HOP-62 NSCLC, > 100 µM; in the experiment with U251 CNS, 35.5 µM. The TGI in the experiment on SF-539 CNS was > 100 µM; in the experiment on SNB-19 CNS, 37.9 µM.

Turning to `O=S(=O)([O-])c1ccc(N=Cc2ccccc2[O-])cc1.O=S(=O)([O-])c1ccc(N=Cc2ccccc2[O-])cc1.[Co+2]`, the GI50 in the experiment on HOP-92 NSCLC was 52.1 µM; in the experiment on 786-0 renal, 76.7 µM; in the experiment with SF-268 CNS it was 20.7 µM; with OVCAR-5 ovarian it was > 100 µM; in the experiment on SF-539 CNS, 84 µM; in the experiment on SNB-19 CNS it was > 100 µM. Moreover, the GI50 in the experiment with K-562 leukemia was > 100 µM. The TGI in the experiment on HOP-92 NSCLC was > 100 µM; in the experiment on 786-0 renal, > 100 µM; in the experiment on SF-268 CNS, 79.3 µM; in the experiment with OVCAR-5 ovarian, > 100 µM; with SF-539 CNS, > 100 µM; with SNB-19 CNS, > 100 µM. Also, the TGI in the experiment with K-562 leukemia is > 100 µM.

As for `COC1C(O)CC(OC2CC(OC3CC(O[C@@H]4C(=O)c5c(cc6cc(OC7CC(OC8CC(O)C(O)C(C)O8)C(O)C(C)O7)c(C)c(O)c6c5O)CC4[C@H](OC)C(=O)O)OC(C)C3O)OC(C)C2O)OC1C` (some centres not stated), the GI50 is 4.4 µM in the experiment with HOP-92 NSCLC; 1.34 µM in the experiment on SK-MEL-5 melanoma; 2.1 µM with 786-0 renal; 2.64 µM in the experiment with SF-268 CNS; 4.04 µM with OVCAR-5 ovarian; 1.63 µM with HOP-62 NSCLC. The values for the GI50 in the experiment on U251 CNS, in the experiment on SNB-19 CNS and in the experiment on K-562 leukemia were 1.53 µM, 1.68 µM and 1.96 µM, respectively. The TGI in the experiment with HOP-92 NSCLC is > 33.3 µM; in the experiment with SK-MEL-5 melanoma it was 8.74 µM; in the experiment on 786-0 renal, > 33.3 µM; in the experiment with SF-268 CNS, > 33.3 µM; in the experiment with OVCAR-5 ovarian, > 33.3 µM; in the experiment with HOP-62 NSCLC it was > 33.3 µM. The TGI with U251 CNS, in the experiment on SNB-19 CNS and in the experiment with K-562 leukemia was > 33.3 µM each time.

On to `COc1ccc(/C(=N\NC(=O)NN)C(c2ccc(OC)cc2)C2(O)C(=O)Nc3c(Cl)cc(Cl)cc32)cc1` (configuration not stated), for which the TGI in the experiment with HOP-92 NSCLC, in the experiment on SK-MEL-5 melanoma, in the experiment with 786-0 renal, in the experiment on SF-268 CNS, with OVCAR-5 ovarian and with HOP-62 NSCLC was > 100 µM each time. Besides, the TGI with U251 CNS and with SNB-19 CNS was > 100 µM throughout.

With `Cc1ccc(-c2nc3ccccc3c(=O)n2NCC2(O)OCC(O)C(O)C2O)cc1` (configuration not stated), the TGI in the experiment on SK-MEL-5 melanoma, in the experiment on 786-0 renal, in the experiment on SF-268 CNS, with OVCAR-5 ovarian, in the experiment with U251 CNS and with SF-539 CNS was > 100 µM each time. For the same compound, the TGI in the experiment on SNB-19 CNS and in the experiment with K-562 leukemia was > 100 µM in each case.

Turning to `N#CC(/C(CCC(=O)Nc1ccc(Cl)cc1)=N/NC(=O)c1cc2ccccc2cc1O)c1ccccc1` (configuration not stated), the TGI in the experiment on HOP-92 NSCLC was > 100 µM; in the experiment on SK-MEL-5 melanoma it was 40.6 µM; in the experiment on 786-0 renal, > 100 µM; with SF-268 CNS, > 100 µM; in the experiment with OVCAR-5 ovarian, 60.6 µM; in the experiment with HOP-62 NSCLC it was 85.3 µM. For the same compound, the TGI in the experiment with U251 CNS and in the experiment on SNB-19 CNS was > 100 µM each time.

For `COC(=O)c1ccccc1N(C(=O)c1ccccc1)c1ccccc1C`, the TGI with SK-MEL-5 melanoma, with 786-0 renal, in the experiment with SF-268 CNS, in the experiment with OVCAR-5 ovarian, in the experiment on HOP-62 NSCLC and in the experiment on U251 CNS was > 100 µM throughout. For the same compound, the TGI in the experiment with SNB-19 CNS and in the experiment with K-562 leukemia was > 100 µM in each case.
